Literature values in patent US20070135390A1, “Phosphate derivatives” (priority 2003, published 2007).

Settings: printed as in vitro use

Substance: Phenol, 2,6-bis(1-methylethyl)-, dihydrogen phosphate (9CI) [propofol phosphate]
- induction of anesthesia: does not however induce anesthesia
